# Source: publication PMC8592419 (PLoS ONE, 2021)
# Where a SMILES comes first, the peptide text is derived from it.
# Columns and labels:
# [1] = tested on: M. abscessus clinical isolate MAB06; type: cell-based, M. abscessus subsp. abscessus; details: 3 days at 37°C
# Description: (§1) Briefly, serial dilutions of the AMPs were prepared with potassium phosphate buffer (PPB) from the concentration range of 3.125 to 400 μg/ml and then 50 μl of each dilution were added to each 96-well plate. Colonies of the isolate were suspended and then further diluted in Mueller-Hinton broth to obtain a final concentration of 1×10^3 CFU/ml (optimized according to the available AMP stock concentration). Fifty microliters of this inoculum were added to each well of the plates. The plates were incubated for 3 days at 37°C. Plain media and bacterial suspensions without AMPs were used as negative and positive controls. The MIC values were read and recorded. All assays were performed in duplicate and two independent experiments.
# (§2) For the in vitro antimicrobial susceptibility, the same protocol as described above was used. The culture plates were further incubated up to 3 days at 37°C. The MIC values were read and recorded.
# [2] = tested on: M. abscessus clinical isolate MAB13; type: cell-based, M. abscessus subsp. massiliense; details: 3 days at 37°C
# Description: as §1, §2
# [3] = tested on: M. abscessus clinical isolate MAB14; assay: microbe, parasite or virus in culture; type: cell-based, M. abscessus subsp. massiliense; details: MAB14
# Description: (§3) Mab suspensions at a 5×10^5 CFU/ml final concentration were added to each well and incubated for 3 days and 14 days at 37°C. MIC values were defined when the percent killing of CFUs of more than 90% were compared to the media controls without AMPs or drugs. The fraction inhibitory concentration index (FICI) was calculated using the following formula: FICI = [C(MIC^A)/MIC^A] + [C(MIC^B)/MIC^B]. […] For interpretation, FICI ≤ 0.5 was interpreted as synergism, FICI >0.5–1.0 was interpreted as additive, FICI >1.0–4.0 was interpreted as indifferent and FICI >4.0 was interpreted as antagonism.
# [4] = tested on: M. abscessus clinical isolate MAB12; assay: microbe, parasite or virus in culture; type: cell-based, M. abscessus subsp. massiliense; details: MAB12
# Description: as §3
# [5] = tested on: human peripheral blood mononuclear cells (PBMCs); assay: PBMC toxicity, trypan blue exclusion assay; type: cell-based; details: 1 h at 37°C, mean±SD of duplicates, two independent experiments
# Description: For the toxicity of the potential AMPs to human peripheral blood mononuclear cells (PBMCs), the trypan blue exclusion assay was used. Fresh human PBMCs were prepared from blood samples of healthy volunteers using the Ficoll density gradient technique. The cells were centrifuged at 1,800 rpm for 20 min at 20°C and washed three times with PBS and adjusted with RPMI-1640 medium into 6.25×10^5 cells/ml. Fifty microliters of PBMC suspension and 50 μl of AMP solutions (6.25–400 μg/ml) were added to the 96-well microtiter plates and incubated for 1 h at 37°C. Then, 20 μl of the samples were mixed with 20 μl of 0.4% (w/v) trypan blue solution (0.81% NaCl and 0.06% (w/v) dibasic potassium phosphate) in microtubes and incubated for 3 min at room temperature. The PBMC suspensions treated with PBS were used as negative controls. PBMCs were counted using a dual-chamber hemocytometer under a light microscope. Viable and non-viable cells were counted under a microscope and the percentage of viable cells was calculated using the following formula: % of viable cells = [1.00 –([…] / Number of total cells)] × 100. All assays were performed in duplicate with two independent experiments.
# [6] = tested on: M. abscessus clinical isolate MAB16; assay: In vitro antimicrobial susceptibility of potential AMPs, broth microdilution, 3 days; type: cell-based, M. abscessus subsp. massiliense; details: 3 days at 37°C
# Description: as §1, §2
# [7] = tested on: M. abscessus clinical isolate MAB15; assay: as above; type: cell-based, M. abscessus subsp. massiliense; details: 3 days at 37°C
# Description: as §1, §2
# [8] = tested on: M. abscessus clinical isolate MAB01; assay: microbe, parasite or virus in culture; type: cell-based, M. abscessus subsp. abscessus; details: MAB01; AMP + CLA; mean ± S.D., two independent experiments
# Description: as §3
# [9] = tested on: M. abscessus clinical isolate MAB09; assay: microbe, parasite or virus in culture; type: cell-based, M. abscessus subsp. abscessus; details: MAB09
# Description: as §3
# [10] = tested on: M. abscessus clinical isolate MAB11; assay: microbe, parasite or virus in culture; type: cell-based, M. abscessus subsp. abscessus; details: MAB11
# Description: as §3
# [11] = tested on: M. abscessus clinical isolate MAB07; assay: microbe, parasite or virus in culture; type: cell-based, M. abscessus subsp. abscessus; details: MAB07
# Description: as §3
# [12] = tested on: M. abscessus clinical isolate MAB03; assay: microbe, parasite or virus in culture; type: cell-based, M. abscessus subsp. abscessus; details: MAB03
# Description: as §3
# [13] = tested on: M. abscessus clinical isolate MAB02; assay: microbe, parasite or virus in culture; type: cell-based, M. abscessus subsp. abscessus; details: MAB02
# Description: as §3
# [14] = tested on: M. abscessus clinical isolate MAB10; assay: microbe, parasite or virus in culture; type: cell-based, M. abscessus subsp. abscessus; details: MAB10
# Description: as §3
# [15] = tested on: M. abscessus clinical isolate MAB05; assay: microbe, parasite or virus in culture; type: cell-based, M. abscessus subsp. abscessus; details: MAB05
# Description: as §3
# [16] = AMP + CLA, mean ± S.D., two independent experiments
smiles,measurement,setting,value
CC[C@H](C)[C@H](NC(=O)[C@H](CCCCN)NC(=O)[C@H](CCCNC(=N)N)NC(=O)CNC(=O)[C@H](CC(C)C)NC(=O)[C@H](CO)NC(=O)[C@H](CCCNC(=N)N)NC(=O)[C@H](CC(C)C)NC(=O)CNC(=O)CN)C(=O)N[C@@H](CC(C)C)C(=O)N[C@@H](CCCNC(=N)N)C(=O)N[C@@H](C)C(=O)N[C@@H](Cc1c[nH]c2ccccc12)C(=O)N[C@@H](CCCCN)C(=O)O [S63] (H-GGLRSLGRKILRAWK-OH),"Antimicrobial peptides against M. abscessus isolates, MIC value",[1],>400 mg/L
same,"Antimicrobial peptides against M. abscessus isolates, MIC value",[2],>400 mg/L
same,FICI,[3]; [16],0.19±0.00
same,"MIC, AMP alone",[3]; AMP alone,>400 mg/L
same,FICI,[4]; [16],1.01±0.00
same,"MIC, AMP alone",[4]; AMP alone,>400 mg/L
same,Viable cells of PBMCs (% viable cells),[5]; 6.25 µg/mL,103.67±6.60%
same,Viable cells of PBMCs (% viable cells),[5]; 12.5 µg/mL,101.78±5.46%
same,Viable cells of PBMCs (% viable cells),[5]; 25 µg/mL,88.38±7.60%
same,Viable cells of PBMCs (% viable cells),[5]; 50 µg/mL,93.65±6.02%
same,Viable cells of PBMCs (% viable cells),[5]; 100 µg/mL,66.28±2.71%
same,Viable cells of PBMCs (% viable cells),[5]; 200 µg/mL,71.94±8.32%
same,Viable cells of PBMCs (% viable cells),[5]; 400 µg/mL,48.78±0.59%
same,"Antimicrobial peptides against M. abscessus isolates, MIC value",[6],>400 mg/L
same,"Antimicrobial peptides against M. abscessus isolates, MIC value",[7],>400 mg/L
same,FICI,[8],0.63±0.17
same,FICI,[9]; [16],0.52±0.00
same,"MIC, AMP alone",[9]; AMP alone,>400 mg/L
same,FICI,[10]; [16],0.76±0.35
same,"MIC, AMP alone",[10]; AMP alone,>400 mg/L
same,FICI,[11]; [16],0.04±0.01
same,"MIC, AMP alone",[11]; AMP alone,>400 mg/L
same,FICI,[12]; [16],0.52±0.00
same,"MIC, AMP alone",[12]; AMP alone,12.5 mg/L
same,FICI,[13]; [16],1.04±0.04
same,"MIC, AMP alone",[13]; AMP alone,>400 mg/L
same,FICI,[14]; [16],0.07±0.00
same,"MIC, AMP alone",[14]; AMP alone,>400 mg/L
same,FICI,[15]; [16],1.01±0.00
same,"MIC, AMP alone",[15]; AMP alone,>400 mg/L
